# Structures can show the parent of a compound that is named as a salt.
# Target: SYK (Homo sapiens, UniProt P43405)
# Assay: SYK inhibition assay: SYK-mediated phosphorylation of FAM-labeled substrate (Caliper microfluidic)
# Type: biochemical
# Conditions: read-out: SYK Inhibition (pIC50) (converted)
row,SMILES,IC50 [µM]
1,"Cc1cccc(Nc2nc(N[C@@H]3CCCC[C@@H]3O)nc3c2C(=O)NC3)c1 (relative stereo) [Example 11, Cis-2-(2-Hydroxycyclohexylamino)-4-(m-tolylamino)-6,7-dihydro-5H-pyrrolo[3,4-d]pyrimidin-5-one]",1.26
2,"Cc1cccc(Nc2nc(N[C@@H]3COC[C@@H]3N)cc3c2C(=O)NC3)c1 (relative stereo) [Example 58, 6-(cis-4-Aminotetrahydrofuran-3-ylamino)-4-(m-tolylamino)-1H-pyrrolo[3,4-c]pyridin-3(2H)-one]",1.58
3,"Cn1cc(-c2nc(N[C@@H]3CC(F)(F)C[C@@H]3N)c(F)c3c2C(=O)NC3)cn1 (relative stereo) [Example 66, 6-(cis-2-Amino-4,4-difluorocyclopentylamino)-7-fluoro-4-(1-methyl-1H-pyrazol-4-yl)-1H-pyrrolo[3,4-c]pyridin-3(2H)-one]",0.501
4,"Cn1cc(-c2nc(N[C@@H]3CCCC(F)(F)[C@@H]3N)c(F)c3c2C(=O)NC3)cn1 (relative stereo) [Example 67, 6-(cis-2-Amino-3,3-difluorocyclohexylamino)-7-fluoro-4-(1-methyl-1H-pyrazol-4-yl)-1H-pyrrolo[3,4-c]pyridin-3(2H)-one]",0.0398
5,"N[C@@H]1[C@H](Nc2nc(-c3cnn(C(F)F)c3)c3c(c2F)CNC3=O)CCCC1(F)F (relative stereo) [Example 68, 6-(cis-2-Amino-3,3-difluorocyclohexylamino)-4-(1-(difluoromethyl)-1H-pyrazol-4-yl)-7-fluoro-1H-pyrrolo[3,4-c]pyridin-3(2H)-one]",0.1
6,"N[C@@H]1[C@H](Nc2nc(-c3cnn(C4CC4)c3)c3c(c2F)CNC3=O)CCCC1(F)F (relative stereo) [Example 69, 6-(cis-2-amino-3,3-difluorocyclohexylamino)-4-(1-cyclopropyl-1H-pyrazol-4-yl)-7-fluoro-1H-pyrrolo[3,4-c]pyridin-3(2H)-one]",0.158
7,"Cc1cccc(Nc2nc(N[C@@H]3CCCC(F)(F)[C@@H]3N)cc3c2C(=O)NC3)c1 (relative stereo) [Example 83, 6-(cis-2-Amino-3,3-difluorocyclohexylamino)-4-(m-tolylamino)-1H-pyrrolo[3,4-c]pyridin-3(2H)-one]",0.251
8,"N[C@H]1CCCC[C@H]1Nc1nc2c(c(Nc3cccc(F)c3)n1)C(=O)NC2 [Example 2, 2-((1R,2S)-2-Aminocyclohexylamino)-4-(3-fluorophenylamino)-6,7-dihydro-5H-pyrrolo[3,4-c]pyrimidin-5-one]",0.126
9,"N[C@H]1CCCC[C@H]1Nc1nc2c(c(Nc3cccc(Cl)c3)n1)C(=O)NC2 [Example 3, 2-((1R,2S)-2-Aminocyclohexylamino)-4-(3-chlorophenylamino)-6,7-dihydro-5H-pyrrolo[3,4-d]pyrimidin-5-one]",0.0251
10,"N[C@H]1CCCC[C@H]1Nc1nc2c(c(Nc3ccc4cn[nH]c4c3)n1)C(=O)NC2 [Example 4, 4-(1H-Indazol-6-ylamino)-2-((1R,2S)-2-aminocyclohexylamino)-6,7-dihydro-5H-pyrrolo[3,4-c]pyrimidin-5-one]",0.0158
11,"Cc1cccc(Nc2nc(-c3cnn(C)c3)nc3c2C(=O)NC3)c1 [Example 7, 2-(1-Methyl-1H-pyrazol-4-yl)-4-(m-tolylamino)-6,7-dihydro-5H-pyrrolo[3,4-c]pyrimidin-5-one]",1
12,"CCN1CCN(c2nc3c(c(Nc4cccc(C)c4)n2)C(=O)NC3)CC1 [Example 9, 2-(4-Ethylpiperazin-1-yl)-4-(m-tolylamino)-6,7-dihydro-5H-pyrrolo[3,4-d]pyrimidin-5-one]",7.94
13,"Cc1cccc(Nc2nc(NC3CCCCC3)nc3c2C(=O)NC3)c1 [Example 10, 2-(Cyclohexylamino)-4-(m-tolylamino)-6,7-dihydro-5H-pyrrolo[3,4-d]pyrimidin-5-one]",> 20
14,"Cc1cccc(Nc2nc(N3CCCC(N)C3)nc3c2C(=O)NC3)c1 (centres unmarked) [Example 12, 2-(3-Aminopiperidin-1-yl)-4-(m-tolylamino)-6,7-dihydro-5H-pyrrolo[3,4-d]pyrimidin-5-one]",2
15,"Cn1cc(-c2nc(N[C@@H]3CCCC[C@@H]3N)nc3c2C(=O)NC3)cn1 [Example 14, 2-((1R,2S)-2-Aminocyclohexylamino)-4-(1-methyl-1H-pyrazol-4-yl)-6,7-dihydro-5H-pyrrolo[3,4-d]pyrimidin-5-one]",0.126
16,"CC(C)Cn1cc(-c2nc(N[C@@H]3CCCC[C@@H]3N)nc3c2C(=O)NC3)cn1 [Example 15, 2-((1R,2S)-2-Aminocyclohexylamino)-4-(1-isobutyl-1H-pyrazol-4-yl)-6,7-dihydro-5H-pyrrolo[3,4-c]pyrimidin-5-one]",1
17,"N[C@H]1CCCC[C@H]1Nc1nc2c(c(-c3ccccc3)n1)C(=O)NC2 [Example 16, 2-((1R,2S)-2-Aminocyclohexylamino)-4-phenyl-6,7-dihydro-5H-pyrrolo[3,4-d]pyrimidin-5-one]",3.16
18,"N[C@H]1CCCC[C@H]1Nc1nc2c(c(-c3csc4ccccc34)n1)C(=O)NC2 [Example 17, 2-((1R,2S)-2-Aminocyclohexylamino)-4-(benzo[b]thiophen-3-yl)-6,7-dihydro-5H-pyrrolo[3,4-c]pyrimidin-5-one]",0.0398

row,SMILES,IC50 [µM]
1,"CCn1cc(-c2nc(N[C@@H]3CCCC[C@@H]3N)nc3c2C(=O)NC3)cn1 [Example 18, 2-((1R,2S)-2-Aminocyclohexylamino)-4-(1-ethyl-1H-pyrazol-4-yl)-6,7-dihydro-5H-pyrrolo[3,4-d]pyrimidin-5-one]",0.0794
2,"N[C@H]1CCCC[C@H]1Nc1nc2c(c(-c3cnn(Cc4ccccc4)c3)n1)C(=O)NC2 [Example 19, 2-((1R,2S)-2-Aminocyclohexylamino)-4-(1-benzyl-1H-pyrazol-4-yl)-6,7-dihydro-5H-pyrrolo[3,4-d]pyrimidin-5-one]",0.251
3,"N[C@H]1CCCC[C@H]1Nc1nc2c(c(-c3cnc4ccccn34)n1)C(=O)NC2 [Example 20, 2-((1R,2S)-2-Aminocyclohexylamino)-4-(imidazo[1,2-a]pyridin-3-yl)-6,7-dihydro-5H-pyrrolo[3,4-d]pyrimidin-5-one]",0.2
4,"CCCn1cc(-c2nc(N[C@@H]3CCCC[C@@H]3N)nc3c2C(=O)NC3)cn1 [Example 21, 2-((1R,2S)-2-Aminocyclohexylamino)-4-(1-propyl-1H-pyrazol-4-yl)-6,7-dihydro-5H-pyrrolo[3,4-c]pyrimidin-5-one]",0.501
5,"COCCn1cc(-c2nc(N[C@@H]3CCCC[C@@H]3N)nc3c2C(=O)NC3)cn1 [Example 22, 2-((1R,2S)-2-Aminocyclohexylamino)-4-(1-(2-methoxyethyl)-1H-pyrazol-4-yl)-6,7-dihydro-5H-pyrrolo[3,4-d]pyrimidin-5-one]",2
6,"N[C@H]1CCCC[C@H]1Nc1cc2c(c(Nc3ccc4cn[nH]c4c3)n1)C(=O)NC2 [Example 23, 4-(1H-Indazol-6-ylamino)-6-((1R,2S)-2-aminocyclohexylamino)-1H-pyrrolo[3,4-c]pyridin-3(2H)-one]",0.002
7,"Cc1cc(Nc2nc(N[C@@H]3CCCC[C@@H]3N)cc3c2C(=O)NC3)ccc1F [Example 24, 6-((1R,2S)-2-Aminocyclohexylamino)-4-(4-fluoro-3-methylphenylamino)-1H-pyrrolo[3,4-c]pyridin-3(2H)-one]",0.0251
8,"Cn1cc(-c2nc(N[C@@H]3CCCC[C@@H]3N)cc3c2C(=O)NC3)cn1 [Example 26, 6-((1R,2S)-2-Aminocyclohexylamino)-4-(1-methyl-1H-pyrazol-4-yl)-1H-pyrrolo[3,4-c]pyridin-3(2H)-one]",0.0316
9,"Cn1cc(-c2nc(N[C@@H]3CCOC[C@@H]3N)cc3c2C(=O)NC3)cn1 [Example 27, 6-((3R,4R)-3-Aminotetrahydro-2H-pyran-4-ylamino)-4-(1-methyl-1H-pyrazol-4-yl)-1H-pyrrolo[3,4-c]pyridin-3(2H)-one]",0.0398
10,"Cn1cc(-c2nc(N[C@@H]3CCCC[C@@H]3N)c(Cl)c3c2C(=O)NC3)cn1 [Example 29, 6-((1R,2S)-2-Aminocyclohexylamino)-7-chloro-4-(1-methyl-1H-pyrazol-4-yl)-1H-pyrrolo[3,4-c]pyridin-3(2H)-one]",0.00316
11,"N[C@H]1CCCC[C@H]1Nc1nc(-c2cnn3ccccc23)c2c(c1F)CNC2=O [Example 31, 6-((1R,2S)-2-Aminocyclohexylamino)-7-fluoro-4-(pyrazolo[1,5-a]pyridin-3-yl)-1H-pyrrolo[3,4-c]pyridin-3(2H)-one]",0.00251
12,"Cc1cccc(Nc2nc(N3CCCCC3CN)nc3c2C(=O)NC3)c1 (centres unmarked) [Example 32, 2-(2-(Aminomethyl)piperidin-1-yl)-4-(m-tolylamino)-6,7-dihydro-5H-pyrrolo[3,4-c]pyrimidin-5-one]",3.98
13,"CS(=O)(=O)c1cccc(Nc2nc(N[C@@H]3CCCC[C@@H]3N)cc3c2C(=O)NC3)c1 [Example 33, 6-((1R,2S)-2-Aminocyclohexylamino)-4-(3-(methylsulfonyl)phenylamino)-1H-pyrrolo[3,4-c]pyridin-3(2H)-one]",0.0501
14,"CS(=O)(=O)c1cccc(Nc2nc(N[C@@H]3CCC[C@@H]3N)cc3c2C(=O)NC3)c1 [Example 34, 6-((1R,2S)-2-Aminocyclopentylamino)-4-(3-(methylsulfonyl)phenylamino)-1H-pyrrolo[3,4-c]pyridin-3(2H)-one (HCl salt)]",0.316
15,"CC(C)C[C@@H](Nc1cc2c(c(Nc3cccc(S(C)(=O)=O)c3)n1)C(=O)NC2)C(N)=O [Example 35, (R)-4-Methyl-2-(4-(3-(methylsulfonyl)phenylamino)-3-oxo-2,3-dihydro-1H-pyrrolo[3,4-c]pyridin-6-ylamino)pentanamide]",0.0501
16,"CC(C)C[C@@H](Nc1cc2c(c(-c3cnn(C)c3)n1)C(=O)NC2)C(N)=O [Example 36, (R)-4-Methyl-2-(4-(1-methyl-1H-pyrazol-4-yl)-3-oxo-2,3-dihydro-1H-pyrrolo[3,4-c]pyridin-6-ylamino)pentanamide]",0.0251
17,"Cc1cccc(Nc2nc(N[C@@H]3CCCC[C@@H]3N(C)C)nc3c2C(=O)NC3)c1 [Example 37, 2-((1R,2S)-2-(Dimethylamino)cyclohexylamino)-4-(m-tolylamino)-6,7-dihydro-5H-pyrrolo[3,4-d]pyrimidin-5-one]",1

# Reference: patent US9181255B2, “Fused heteroaromatic pyrrolidinones as SYK inhibitors” (Takeda Pharmaceutical Company Limited, priority 2009, dated 2015)
